The nature of this data set: Electrophysiological effects (EKG, QTc interval, cardiotoxicity) in dogs. Conditions: for prolongation of QTc interval (comparison in words): among the animals tested; for QTc Interval: dogs, rising cumulative dose at 30 minute intervals; for dogs died / survived: during or shortly after the experiment, four dogs per treatment, cumulative doses up to 4.0 mg/kg. It is filed as in vivo, mongrel dogs.

Where [1] appears, read: 4.0 mg/kg, N=4 except S(-) ondansetron N=3.

Experimental: An investigation was conducted to determine the effect of racemic ondansetron and the R(+)- and S(-)- enanatiomers of ondansetron in causing cardiac arrhythmias (cardiotoxicity) resulting from a lengthening of the cardiac action potential.
The order of administration was randomized to ensure that each dog received only one treatment.

With `Cc1nccn1C[C@@H]1CCc2c(c3ccccc3n2C)C1=O` [S(-)-Ondansetron, S(-) ondansetron], the “prolongation of QTc interval (comparison in words)” value (“prolongation of QTc interval” for short) is on record as “most prolonged”. Further, the “QTc Interval” value (1.0 mg/kg, N=4) was 0.43 ± 0.02 s. Moreover, the “QTc Interval” value (2.0 mg/kg, N=4) stood at 0.44 ± 0.04 s. The “QTc Interval” value under setting [1] was determined as 0.44 ± 0.03 s.
`Cc1nccn1C[C@H]1CCc2c(c3ccccc3n2C)C1=O` [R(+)-Ondansetron, R(+) ondansetron]: the “prolongation of QTc interval” value is “shortest” and the “dogs died / survived” value is listed as “survived”. The “cardiotoxicity (comparison in words)” value (conclusion from QTc and mortality data) is listed as “less cardiotoxicity than either S(-) ondansetron or racemic ondansetron”. Further, the “QTc Interval” value (1.0 mg/kg, N=4) is 0.39 ± 0.01 s. For the same compound, the “QTc Interval” value (2.0 mg/kg, N=4) was found to be 0.40 ± 0.01 s. For the same compound, the “QTc Interval” value under setting [1] is 0.41 ± 0.02 s.
As to `Cc1nccn1CC1CCc2c(c3ccccc3n2C)C1=O` (racemic) [R,S-Ondansetron, ondansetron], the “prolongation of QTc interval” value is given as “most prolonged” and the “dogs died / survived” value is on record as “survived”. In addition, the “QTc Interval” value (1.0 mg/kg, N=4) came to 0.41 ± 0.01 s. Also, for the setting “2.0 mg/kg, N=4”, the “QTc Interval” value worked out at 0.45 ± 0.01 s. Under setting [1], the “QTc Interval” value was found to be 0.47 ± 0.01 s.

Values taken from patent EP1435238A1, “Methods for treating apnea and apnea disorders using optically pure R (+) ondansetron” (Sepracor Inc., priority 1999, dated 2000).
